In publication PMC7773657, “Identification of Compounds With Glucocorticoid Sparing Effects on Suppression of Chemokine and Cytokine Production by Rheumatoid Arthritis Fibroblast-Like Synoviocytes” (Frontiers in Pharmacology, 2020):
pIC50: −log10 of the molar value.

Tests used:
NF-κB = NF-κB activation assay in LPS stimulated CellSensor NF-κB-bla THP-1 reporter cells (FRET); format: cell-based, human; details: THP-1 CellSensor NF-κB-bla reporter cells, LPS 10 ng/ml, 5 h and 16 h
Experimental: The CellSensor® NF-κB-bla THP-1 cell line has a stably integrated ß-lactamase reporter gene under the control of the nuclear factor kappa B (NF-κB) response element. […] In the presence of ß-lactamase, CCF4 was enzymatically cleaved and excitation at 409 nm produced a blue fluorescence signal (at 450 nm). The CellSensor® NF-κB-bla THP-1 cells were dispersed in 96-well plates (5 × 10^4 cells/200 µL/well) and incubated for 4 h. […] After incubation, the ß-lactamase substrate mixture (prepared according to the manufacturer’s protocol) was added to each well. Plates were incubated at room temperature in the dark for 2 h. Fluorescence was measured on a Tecan Infinite M200 plate reader (Tecan, Mannedorf, Switzerland) at an excitation wavelength of 405 nm and emission wavelengths of 465 and 535 nm. Emission ratios are calculated by dividing values from emission wavelength of 465 nm by those from emission wavelength of 535 nm. The response ratio was calculated as follows [(emission ratio of a test well)/average emission ratio of wells with vehicle (0.5% DMSO)] and values were normalized to the LPS control treated wells [response ratio of the compound/response ratio of LPS].

THP-1 cells = assay: TNF stimulated CXCL8 release by THP-1 cells (ELISA); format: cell-based; details: Homo sapiens, TNF 2 ng/ml, overnight, single agents (Figure 5A), read-out: IC50 for TNF stimulated CXCL8 release (titration experiment with DEX)
Experimental: THP-1 cells (10^5 cells/200 µL/well) and RA FLS (10^4/200 µL/well) were plated in 96 well plates and pre-treated with compound or vehicle for 1 h and then stimulated with either LPS (10 ng/ml), IL-1ß (2 ng/ml) or TNF (2 ng/ml for THP-1 and 1 ng/ml for RA FLS). After 18 h of incubation, supernatants were collected and the levels of cytokines and chemokines in the culture supernatants were measured by ELISA according to the manufacturer’s protocols (R&D systems, Minneapolis, MN).
Drug synergy analysis was performed using Isobologram plots which were calculated according to reported procedures using methods of Chou-Talalay ([Chou and Talalay, 1984]) to compute IC50 and determine synergism. IC50 is computed from the median effect equation. Synergism analysis is carried out using the Combination index (CI)-isobol method. Data analysis was performed using the CompuSyn software available on combisyn.com. Detailed methodology was used as described in a prior report ([Chou, 2006]). […] This is followed by CI-isobol method to quantitatively assess the synergism between these inhibitor drugs. […] From the median effect equation, the estimated dose (i.e., D) necessary to produce the inhibition (i.e. Fa, Fu) obtained by the combination was calculated. […]

## NC(=O)Nc1sc(-c2ccc(F)cc2)cc1C(N)=O [UTC, 5-(4-fluorophenyl)-2-ureidothiophene-3 carboxylic acid amide]
NF-κB
  Inhibition of LPS induced NF-κB activity: inhibited NF-κB activity at both time points

## C[C@@H]1C[C@H]2[C@@H]3CCC4=CC(=O)C=C[C@]4(C)[C@@]3(F)[C@@H](O)C[C@]2(C)[C@@]1(O)C(=O)CO [DEX, dexamethasone]
THP-1 cells
  pIC50: 6.52
NF-κB
  Inhibition of LPS induced NF-κB activity: inhibited NF-κB activity more potently at 16 h than 5 h
